Measurements as given in patent US20250231185A1, “Coronavirus T Cell Epitopes, Megapools and Uses Thereof” (La Jolla Institute for Immunology, priority 2021, published 2025).
Entries after “also recorded” stand apart in the source; their conditions may differ. Read-outs that look alike come from different tables or passages of the source.

Experiments:
CD4+ T cells [1] = assay: Meta-analysis of published SARS-CoV-2 CD4 T cell epitope data curated in the IEDB (25 studies); type: cell-based, human
CD4+ T cells [2] = details: cited from earlier work; for Allele(s): HLA class II allele(s) identified as MHC restriction elements of the CD4 epitope; for Restriction: T cell subset (CD4 or CD8) recognizing the SARS-CoV-2 epitope; for Dominant: SARS-CoV-2-derived CD4 epitopes, Yes = recognized by 3 or more donors/different studies
[3] = CD4R (D) Megapool, non-spike antigens, dominant = recognized in 3 or more donors/studies
[4] = CD4RE megapool peptides (non-spike SARS-CoV-2 CD4 epitopes), dominant = recognized by 3 or more donors/different studies

Substance | Allele(s) (CD4+ T cells [2]) | Restriction (CD4+ T cells [2]) | further results
2316 (KDGIIWVATEGALNT) [compound 2316] |  |  | Dominant (CD4+ T cells [1]; [3]): Yes (more dominant epitopes are defined by being recognized by 3 or more donors/different studies)
2658 (GMEVTPSGTWLTYTGAIKLD) [compound 2658] |  |  | Dominant (CD4+ T cells [1]; [4]): Yes (more dominant epitopes are defined by being recognized by 3 or more donors/different studies)
2662 (ILLNKHIDAYKTFPP) [compound 2662] |  |  | Dominant (CD4+ T cells [1]; [4]): Yes (more dominant epitopes are defined by being recognized by 3 or more donors/different studies)
2619 (YRINWITGGIAIAMA) [compound 2619] |  |  | Dominant (CD4+ T cells [1]; [4]): Yes (more dominant epitopes are defined by being recognized by 3 or more donors/different studies)
2312 (YYRRATRRIRGGDGK) [compound 2312] |  |  | Dominant (CD4+ T cells [1]; [3]): Yes (more dominant epitopes are defined by being recognized by 3 or more donors/different studies)
2317 (AIVLQLPQGTTLPKG) [compound 2317] |  |  | Dominant (CD4+ T cells [1]; [3]): Yes (more dominant epitopes are defined by being recognized by 3 or more donors/different studies)
2307 (SGFAAYSRYRIGNYK) [compound 2307] |  |  | Dominant (CD4+ T cells [1]; [3]): Yes (more dominant epitopes are defined by being recognized by 3 or more donors/different studies)
2292 (MWLSYFIASFRLFAR) [compound 2292] |  |  | Dominant (CD4+ T cells [1]; [3]): Yes (more dominant epitopes are defined by being recognized by 3 or more donors/different studies)
2674 (QEEVQELYSPIFLIV) [compound 2674] |  |  | Dominant (CD4+ T cells [1]; [4]): Yes (more dominant epitopes are defined by being recognized by 3 or more donors/different studies)
2625 (LRGHLRIAGHHLGRC) [compound 2625] |  |  | Dominant (CD4+ T cells [1]; [4]): Yes (more dominant epitopes are defined by being recognized by 3 or more donors/different studies)
2315 (NKDGIIWVATEGALN) [compound 2315] |  |  | Dominant (CD4+ T cells [1]; [3]): Yes (more dominant epitopes are defined by being recognized by 3 or more donors/different studies)
2634 (SYYKLGASQRVAGDS) [compound 2634] |  |  | Dominant (CD4+ T cells [1]; [4]): Yes (more dominant epitopes are defined by being recognized by 3 or more donors/different studies)
2622 (TNILLNVPLHGTILT) [compound 2622] |  |  | Dominant (CD4+ T cells [1]; [4]): Yes (more dominant epitopes are defined by being recognized by 3 or more donors/different studies)
2621 (MWLSYFIASFRLFAR) [compound 2621] |  |  | Dominant (CD4+ T cells [1]; [4]): Yes (more dominant epitopes are defined by being recognized by 3 or more donors/different studies)
2655 (YKHWPQIAQFAPSAS) [compound 2655] |  |  | Dominant (CD4+ T cells [1]; [4]): Yes (more dominant epitopes are defined by being recognized by 3 or more donors/different studies)
2331 (GTWLTYTGAIKLDDK) [compound 2331] |  |  | Dominant (CD4+ T cells [1]; [3]): Yes (more dominant epitopes are defined by being recognized by 3 or more donors/different studies)
2639 (DDQIGYYRRATRRIR) [compound 2639] |  |  | Dominant (CD4+ T cells [1]; [4]): Yes (more dominant epitopes are defined by being recognized by 3 or more donors/different studies)
2644 (NKDGIIWVATEGALN) [compound 2644] |  |  | Dominant (CD4+ T cells [1]; [4]): Yes (more dominant epitopes are defined by being recognized by 3 or more donors/different studies)
2288 (QFAYANRNRFLYIIK) [compound 2288] |  |  | Dominant (CD4+ T cells [1]; [3]): Yes (more dominant epitopes are defined by being recognized by 3 or more donors/different studies)
2291 (CLVGLMWLSYFIASF) [compound 2291] |  |  | Dominant (CD4+ T cells [1]; [3]): Yes (more dominant epitopes are defined by being recognized by 3 or more donors/different studies)

Substance | Allele(s) (CD4+ T cells [2]) | Restriction (CD4+ T cells [2]) | further results
2659 (PSGTWLTYTGAIKLD) [compound 2659] |  |  | Dominant (CD4+ T cells [1]; [4]): Yes (more dominant epitopes are defined by being recognized by 3 or more donors/different studies)
2333 (ILLNKHIDAYKTFPP) [compound 2333] |  |  | Dominant (CD4+ T cells [1]; [3]): Yes (more dominant epitopes are defined by being recognized by 3 or more donors/different studies)
2616 (FYVYSRVKNLNSSRV) [compound 2616] |  |  | Dominant (CD4+ T cells [1]; [4]): Yes (more dominant epitopes are defined by being recognized by 3 or more donors/different studies)
89 (QFAPSASAFFGMSRI) [compound 89] | DRB1*07:01 | CD4 | 
76 (GKGQQQQGQTVTKKS) [compound 76] |  | CD4 | 
65 (PRWYFYYLGTGPEAG) [compound 65] | DQB1*02:01, DQB1*05:03 | CD4 | 
19 (CLVGLMWLSYFIASF) [compound 19] | DQB1*05:01, DQB1*05:03,; also recorded: DRB1*12:01, DRB1*12:02 | CD4 | Dominant (CD4+ T cells [2]): Yes (more dominant epitopes are defined by being recognized by 3 or more donors/different studies)
26 (NVPLHGTILTRPLLE) [compound 26] |  | CD4 | 
12 (LYIIKLIFLWLLWPV) [compound 12] | DQB1*02:01, DRB1*12:01 | CD4 | 
71 (EGALNTPKDHIGTRN) [compound 71] |  | CD4 | 
53 (ASWFTALTQHGKEDL) [compound 53] |  | CD4 | Dominant (CD4+ T cells [2]): Yes (more dominant epitopes are defined by being recognized by 3 or more donors/different studies)
79 (KPRQKRTATKAYNVT) [compound 79] | DPB1*14:01 | CD4 | 
38 (KEITVATSRTLSYYK) [compound 38] | DQB1*06:03, DRB1*03:01,; also recorded: DRB1*07:01, DRB1*14:01,; also recorded: DRB1*14:06, DRB1*15:01,; also recorded: DRB1*16:02 | CD4 | Dominant (CD4+ T cells [2]): Yes (more dominant epitopes are defined by being recognized by 3 or more donors/different studies)
10 (QFAYANRNRFLYIIK) [compound 10] | DRB1*14:01 | CD4 | Dominant (CD4+ T cells [2]): Yes (more dominant epitopes are defined by being recognized by 3 or more donors/different studies)
49 (LNTDHSSSSDNIALL) [compound 49] |  | CD4 | 
58 (DDQIGYYRRATRRIR) [compound 58] | DRB1*01:03, DRB1*07:01,; also recorded: DRB1*13:01, DRB1*14:01,; also recorded: DRB1*14:06, DRB1*15:01,; also recorded: DRB1*16:02 | CD4 | Dominant (CD4+ T cells [2]): Yes (more dominant epitopes are defined by being recognized by 3 or more donors/different studies)
80 (KRTATKAYNVTQAFG) [compound 80] | DQB1*06:02, DQB1*06:03 | CD4 | Dominant (CD4+ T cells [2]): Yes (more dominant epitopes are defined by being recognized by 3 or more donors/different studies)
82 (TQAFGRRGPEQTQGN) [compound 82] |  | CD4 | 
28 (RPLLESELVIGAVIL) [compound 28] | DQB1*02:02 | CD4 | 
44 (LGASQRVAGDSGFAA) [compound 44] |  | CD4 | Dominant (CD4+ T cells [2]): Yes (more dominant epitopes are defined by being recognized by 3 or more donors/different studies)

Substance | Allele(s) (CD4+ T cells [2]) | Restriction (CD4+ T cells [2]) | further results
48 (IGNYKLNTDHSSSSD) [compound 48] | DRB1*03:01 | CD4 | 
69 (KDGIIWVATEGALNT) [compound 69] |  | CD4 | Dominant (CD4+ T cells [2]): Yes (more dominant epitopes are defined by being recognized by 3 or more donors/different studies)
14 (LLWPVTLACFVLAAV) [compound 14] | DQB1*05:01, DQB1*05:03,; also recorded: DQB1*06:03 | CD4 | 
72 (AIVLQLPQGTTLPKG) [compound 72] |  | CD4 | Dominant (CD4+ T cells [2]): Yes (more dominant epitopes are defined by being recognized by 3 or more donors/different studies)
4 (FYVYSRVKNLNSSRV) [compound 4] |  | CD4 | Dominant (CD4+ T cells [2]): Yes (more dominant epitopes are defined by being recognized by 3 or more donors/different studies)
32 (LRGHLRIAGHHLGRC) [compound 32] | DRB1*11:01, DRB1*11:04 | CD4 | Dominant (CD4+ T cells [2]): Yes (more dominant epitopes are defined by being recognized by 3 or more donors/different studies)
104 (KQQTVTLLPAADLDDF) [compound 104] |  | CD4 | 
5 (EELKKLLEQWNLVIG) [compound 5] | DQB1*05:01, DQB1*05:02 | CD4 | 
96 (TWLTYTGAIKLDDKDPNF) [compound 96] |  | CD4 | 
39 (ATSRTLSYYKLGASQ) [compound 39] | DQB1*05:01, DQB1*05:03,; also recorded: DRB1*16:01 | CD4 | 
67 (LPYGANKDGIIWVAT) [compound 67] |  | CD4 | 
23 (TRSMWSFNPETNILL) [compound 23] | DQB1*05:03, DRB1*01:02 | CD4 | 
29 (SELVIGAVILRGHLR) [compound 29] | DQB1*06:02, DQB1*06:03,; also recorded: DRB1*01:02, DRB1*13:01,; also recorded: DRB1*14:01, DRB1*15:01,; also recorded: DRB1*16:01 | CD4 | Dominant (CD4+ T cells [2]): Yes (more dominant epitopes are defined by being recognized by 3 or more donors/different studies)
46 (SGFAAYSRYRIGNYK) [compound 46] | DRB1*15:01 | CD4 | Dominant (CD4+ T cells [2]): Yes (more dominant epitopes are defined by being recognized by 3 or more donors/different studies)
77 (AAEASKKPRQKRTAT) [compound 77] |  | CD4 | Dominant (CD4+ T cells [2]): Yes (more dominant epitopes are defined by being recognized by 3 or more donors/different studies)
88 (WPQIAQFAPSASAFF) [compound 88] | DQB1*02:02, DQB1*05:03,; also recorded: DRB1*04:04, DRB1*07:01,; also recorded: DRB1*15:01 | CD4 | Dominant (CD4+ T cells [2]): Yes (more dominant epitopes are defined by being recognized by 3 or more donors/different studies)
52 (TFGGPSDSTGSNQNG) [compound 52] | DQB1*03:01 | CD4 | 
108 (EEIAIILASFSASTS) [compound 108] | DQB1*02:02, DQB1*03:02,; also recorded: DRB1*04:10, DRB1*07:01 | CD4 | 
21 (FIASFRLFARTRSMW) [compound 21] | DQB1*05:03, DRB1*03:01,; also recorded: DRB1*14:01 | CD4 | 
99 (PNFKDQVILLNKHIDAYK) [compound 99] |  | CD4 | 
